In brackets after ≈: the same amount, converted by molar mass.

These results are taken from EPA's ToxValDB 9.5 (doi:10.2903/j.efsa.2007.110r).

For data set [1], the system named is Colinus virginianus. The settings on record: acute; oral; diet; mortality.
Data set [2] has as its system Rattus norvegicus.
Data set [3] deals with Tagia sp.
Data set [4] relates to Pimephales promelas. The settings on record: chronic/long-term; duration: 28 days; growth.
Data set [5] has as its system Apis mellifera. The settings on record: acute; duration: 48 hours; oral; unspecified; mortality.
Data set [6] relates to Canidae. The following applies: subchronic; duration: 90 days; oral; Dog Other; organ weight.
Data set [7] relates to Daphnia magna. The following applies: chronic/long-term; duration: 21 days; reproduction.
Data set [8] deals with Bird.
The subject of data set [9] is Oncorhynchus mykiss. The settings on record: acute; duration: 96 hours; mortality.

The NOAEL is the highest tested level that showed no adverse finding. On to `N#Cc1c[nH]cc1-c1cccc2c1OC(F)(F)O2` [Fludioxonil], for which the LC50 is > 833 mg/kg-day in data set [1]; > 1000 mg/kg in [3] (acute, mortality); 0.23 µg/mL (≈ 0.927 µM) in data set [9]. Moreover, the LD50 was > 5000 mg/kg in data set [2] (acute, oral, mortality); > 100 µg/piece in [5]; ≥ 2000 mg/kg in [8] (acute, oral, unspecified, mortality). Further, the NOAEL in data set [2] (chronic, duration: 2 years, oral, diet, organ weight) turned out to be 37 mg/kg-day; in data set [2] (reproduction developmental, reproduction), 212 mg/kg-day; in [6] it was 58.5 mg/kg-day. For the same molecule, the NOEC in data set [3] (chronic/long-term) turned out to be 20 mg/kg; in data set [4], 0.039 mg/L; in data set [7], 0.005 mg/L; in data set [8] (reproductive), 11.1 mg/kg-day.
